Experiment [1] addresses Serine/threonine-protein kinase B-raf (Homo sapiens, UniProt P15056). Put plainly: Inhibition of human recombinant B-Raf expressed in Sf9 cells assessed as inhibition of Mek1 phosphorylation.
Another experiment relates to BXPC-3. Briefly: Growth inhibition of human BxPC3 cells. It is filed as functional, cell-based.
In another experiment the test system is HT-29. Put plainly: Growth inhibition of human HT-29 cells. It is filed as functional, cell-based.
Another experiment relates to A-375. Briefly: Growth inhibition of human A375 cells. It is filed as functional, cell-based.
A further experiment relates to SW-620. Briefly: Growth inhibition of human SW620 cells. It is filed as functional, cell-based.
The test system of the next experiment is LoVo. Briefly: Growth inhibition of human LoVo cells. The experiment is classed as functional, cell-based.
Experiment [2] can be described thus: Growth inhibition of human WM266.4 cells. It is filed as functional, cell-based. The following applies: WM 266-4.
The test system of another experiment is Caco-2. Put plainly: Growth inhibition of human Caco-2 cells. The experiment is classed as functional, cell-based.
The target in experiment [3] is Serine/threonine-protein kinase mTOR (Homo sapiens, UniProt P42345). Briefly: Inhibition of mTOR.
Experiment [4] addresses RAC-alpha serine/threonine-protein kinase (Homo sapiens, UniProt P31749). Put plainly: Inhibition of AKT.
The target in experiment [5] is Cyclin-dependent kinase 4 (Homo sapiens, UniProt P11802). Briefly: Inhibition of CDK4.
Sequence of Cyclin-dependent kinase 4 (P11802 whole entry): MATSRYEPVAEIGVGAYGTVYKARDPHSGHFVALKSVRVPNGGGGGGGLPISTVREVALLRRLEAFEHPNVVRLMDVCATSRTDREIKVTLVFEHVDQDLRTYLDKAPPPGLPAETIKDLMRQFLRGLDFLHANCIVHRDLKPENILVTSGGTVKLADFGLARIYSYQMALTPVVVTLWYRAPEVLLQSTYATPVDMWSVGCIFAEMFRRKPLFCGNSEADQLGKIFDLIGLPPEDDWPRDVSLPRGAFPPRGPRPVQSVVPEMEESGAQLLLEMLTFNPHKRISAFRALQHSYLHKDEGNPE
In experiment [6] the target is Tyrosine-protein kinase Lck (Homo sapiens, UniProt P06239). Put plainly: Inhibition of LCK.
Sequence of Tyrosine-protein kinase Lck (P06239 whole entry): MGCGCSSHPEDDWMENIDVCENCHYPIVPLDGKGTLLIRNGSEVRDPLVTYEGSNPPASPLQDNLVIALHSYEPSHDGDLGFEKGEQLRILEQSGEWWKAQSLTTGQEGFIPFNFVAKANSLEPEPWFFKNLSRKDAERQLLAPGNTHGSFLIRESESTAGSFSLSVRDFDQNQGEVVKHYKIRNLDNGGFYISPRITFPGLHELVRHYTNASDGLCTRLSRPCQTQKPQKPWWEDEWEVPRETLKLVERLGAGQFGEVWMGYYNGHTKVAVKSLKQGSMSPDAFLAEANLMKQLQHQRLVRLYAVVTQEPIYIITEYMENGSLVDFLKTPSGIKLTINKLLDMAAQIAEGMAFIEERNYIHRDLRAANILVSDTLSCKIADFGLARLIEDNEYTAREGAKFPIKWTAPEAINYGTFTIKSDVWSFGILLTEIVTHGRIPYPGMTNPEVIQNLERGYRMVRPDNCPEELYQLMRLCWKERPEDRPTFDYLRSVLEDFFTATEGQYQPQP
The target in experiment [7] is Tyrosine-protein kinase Lyn (Homo sapiens, UniProt P07948). Put plainly: Inhibition of LYN.
Sequence of Tyrosine-protein kinase Lyn (P07948 whole entry): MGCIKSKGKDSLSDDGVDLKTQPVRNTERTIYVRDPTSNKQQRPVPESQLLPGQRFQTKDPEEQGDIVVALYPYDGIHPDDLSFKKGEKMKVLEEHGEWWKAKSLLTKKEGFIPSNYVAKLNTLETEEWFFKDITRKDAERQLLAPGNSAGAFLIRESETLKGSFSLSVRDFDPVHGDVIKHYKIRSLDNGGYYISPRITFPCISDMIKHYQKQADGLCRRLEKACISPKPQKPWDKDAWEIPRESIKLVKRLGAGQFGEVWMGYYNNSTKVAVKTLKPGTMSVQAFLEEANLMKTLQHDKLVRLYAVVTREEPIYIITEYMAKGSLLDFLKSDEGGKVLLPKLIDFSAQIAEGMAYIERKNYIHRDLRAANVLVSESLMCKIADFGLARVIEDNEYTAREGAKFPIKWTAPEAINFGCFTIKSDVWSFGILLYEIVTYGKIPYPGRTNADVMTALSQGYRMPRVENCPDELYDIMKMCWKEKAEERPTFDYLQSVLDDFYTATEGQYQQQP
Experiment [8] addresses Vascular endothelial growth factor receptor 2 (Homo sapiens, UniProt P35968). Put plainly: Inhibition of KDR.
Experiment [9] addresses Insulin-like growth factor 1 receptor (Homo sapiens, UniProt P08069). Briefly: Inhibition of IGFR1.
The target in experiment [10] is Phosphatidylinositol 4,5-bisphosphate 3-kinase catalytic subunit alpha isoform (Homo sapiens, UniProt P42336). Put plainly: Inhibition of PI3Kalpha.
Sequence of Phosphatidylinositol 4,5-bisphosphate 3-kinase catalytic subunit alpha isoform (P42336 whole entry, canonical isoform): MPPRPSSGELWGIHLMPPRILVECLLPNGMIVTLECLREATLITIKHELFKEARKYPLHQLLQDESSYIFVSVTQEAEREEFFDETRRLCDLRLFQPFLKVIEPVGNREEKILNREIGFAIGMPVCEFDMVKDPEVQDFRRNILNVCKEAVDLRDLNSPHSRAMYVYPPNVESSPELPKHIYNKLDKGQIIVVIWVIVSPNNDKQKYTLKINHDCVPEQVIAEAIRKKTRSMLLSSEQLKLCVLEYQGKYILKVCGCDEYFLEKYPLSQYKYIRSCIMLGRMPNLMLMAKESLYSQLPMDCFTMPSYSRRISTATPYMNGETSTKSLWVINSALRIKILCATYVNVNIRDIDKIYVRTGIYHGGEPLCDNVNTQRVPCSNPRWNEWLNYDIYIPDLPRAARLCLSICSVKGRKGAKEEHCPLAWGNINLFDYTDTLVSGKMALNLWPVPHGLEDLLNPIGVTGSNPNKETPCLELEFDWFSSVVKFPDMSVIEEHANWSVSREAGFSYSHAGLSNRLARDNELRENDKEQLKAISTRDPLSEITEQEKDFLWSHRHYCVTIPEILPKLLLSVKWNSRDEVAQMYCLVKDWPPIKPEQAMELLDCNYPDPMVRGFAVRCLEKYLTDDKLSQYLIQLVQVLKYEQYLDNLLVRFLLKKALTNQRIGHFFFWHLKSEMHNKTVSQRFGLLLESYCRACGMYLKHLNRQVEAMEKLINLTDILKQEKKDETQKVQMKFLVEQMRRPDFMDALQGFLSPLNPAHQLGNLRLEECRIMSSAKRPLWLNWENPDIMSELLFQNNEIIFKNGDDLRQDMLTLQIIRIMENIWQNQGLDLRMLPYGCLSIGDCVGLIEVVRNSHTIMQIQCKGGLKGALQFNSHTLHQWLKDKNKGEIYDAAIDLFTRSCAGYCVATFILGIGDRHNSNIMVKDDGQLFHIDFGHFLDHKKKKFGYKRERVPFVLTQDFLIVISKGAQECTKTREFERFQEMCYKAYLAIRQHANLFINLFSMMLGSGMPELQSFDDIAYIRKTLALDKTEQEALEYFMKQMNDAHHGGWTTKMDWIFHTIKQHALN
The target in experiment [11] is Proto-oncogene tyrosine-protein kinase Src (Homo sapiens, UniProt P12931). Put plainly: Inhibition of SRC.
Experiment [12] concerns the target Mitogen-activated protein kinase kinase kinase 8 (Homo sapiens, UniProt P41279). Briefly: Inhibition of Tpl2.
The target of experiment [13] is Tyrosine-protein kinase BTK (Homo sapiens, UniProt Q06187). Briefly: Inhibition of BTK.

pIC50: −log10 of the molar value.

We go through 19 compounds from ChEMBL document CHEMBL1151868, “Identification of pyrazolo[1,5-a]pyrimidine-3-carboxylates as B-Raf kinase inhibitors” (Bioorg Med Chem Lett, 2009).

One may read the pIC50 as the negative decadic logarithm of the IC50, by convention in mol/L.

Sequence of Serine/threonine-protein kinase B-raf (P15056 whole entry): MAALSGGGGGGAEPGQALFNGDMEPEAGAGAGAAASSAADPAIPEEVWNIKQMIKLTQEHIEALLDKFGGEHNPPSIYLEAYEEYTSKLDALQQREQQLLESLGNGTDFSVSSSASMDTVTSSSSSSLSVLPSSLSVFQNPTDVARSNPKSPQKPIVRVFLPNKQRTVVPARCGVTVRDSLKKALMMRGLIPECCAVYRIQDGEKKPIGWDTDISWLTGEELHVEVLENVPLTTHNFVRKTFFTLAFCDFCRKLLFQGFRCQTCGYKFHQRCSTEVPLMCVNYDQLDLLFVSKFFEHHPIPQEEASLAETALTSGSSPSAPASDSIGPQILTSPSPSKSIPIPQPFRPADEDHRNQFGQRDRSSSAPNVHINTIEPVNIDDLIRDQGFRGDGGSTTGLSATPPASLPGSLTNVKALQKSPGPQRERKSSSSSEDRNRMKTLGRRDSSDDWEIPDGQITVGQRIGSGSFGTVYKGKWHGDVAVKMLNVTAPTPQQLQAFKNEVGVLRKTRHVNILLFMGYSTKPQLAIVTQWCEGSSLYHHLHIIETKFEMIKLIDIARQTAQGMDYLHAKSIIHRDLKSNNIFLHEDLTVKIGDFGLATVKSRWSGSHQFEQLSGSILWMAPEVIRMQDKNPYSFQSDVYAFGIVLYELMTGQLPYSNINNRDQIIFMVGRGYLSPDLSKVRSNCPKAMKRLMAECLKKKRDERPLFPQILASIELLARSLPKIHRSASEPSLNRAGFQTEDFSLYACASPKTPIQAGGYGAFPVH
Sequence of RAC-alpha serine/threonine-protein kinase (P31749 whole entry): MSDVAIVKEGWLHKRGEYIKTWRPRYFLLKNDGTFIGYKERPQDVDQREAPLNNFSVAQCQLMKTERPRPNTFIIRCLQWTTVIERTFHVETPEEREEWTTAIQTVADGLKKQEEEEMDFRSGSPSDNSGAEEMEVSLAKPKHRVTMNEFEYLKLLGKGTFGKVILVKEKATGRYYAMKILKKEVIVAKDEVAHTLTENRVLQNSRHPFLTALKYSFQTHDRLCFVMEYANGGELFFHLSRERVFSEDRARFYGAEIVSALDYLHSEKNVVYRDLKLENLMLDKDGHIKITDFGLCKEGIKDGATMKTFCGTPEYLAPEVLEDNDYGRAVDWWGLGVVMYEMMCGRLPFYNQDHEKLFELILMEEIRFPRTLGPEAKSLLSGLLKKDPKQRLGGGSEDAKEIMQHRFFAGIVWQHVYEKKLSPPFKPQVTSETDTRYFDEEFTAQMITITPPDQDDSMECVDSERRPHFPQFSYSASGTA
Sequence of Vascular endothelial growth factor receptor 2 (P35968 whole entry): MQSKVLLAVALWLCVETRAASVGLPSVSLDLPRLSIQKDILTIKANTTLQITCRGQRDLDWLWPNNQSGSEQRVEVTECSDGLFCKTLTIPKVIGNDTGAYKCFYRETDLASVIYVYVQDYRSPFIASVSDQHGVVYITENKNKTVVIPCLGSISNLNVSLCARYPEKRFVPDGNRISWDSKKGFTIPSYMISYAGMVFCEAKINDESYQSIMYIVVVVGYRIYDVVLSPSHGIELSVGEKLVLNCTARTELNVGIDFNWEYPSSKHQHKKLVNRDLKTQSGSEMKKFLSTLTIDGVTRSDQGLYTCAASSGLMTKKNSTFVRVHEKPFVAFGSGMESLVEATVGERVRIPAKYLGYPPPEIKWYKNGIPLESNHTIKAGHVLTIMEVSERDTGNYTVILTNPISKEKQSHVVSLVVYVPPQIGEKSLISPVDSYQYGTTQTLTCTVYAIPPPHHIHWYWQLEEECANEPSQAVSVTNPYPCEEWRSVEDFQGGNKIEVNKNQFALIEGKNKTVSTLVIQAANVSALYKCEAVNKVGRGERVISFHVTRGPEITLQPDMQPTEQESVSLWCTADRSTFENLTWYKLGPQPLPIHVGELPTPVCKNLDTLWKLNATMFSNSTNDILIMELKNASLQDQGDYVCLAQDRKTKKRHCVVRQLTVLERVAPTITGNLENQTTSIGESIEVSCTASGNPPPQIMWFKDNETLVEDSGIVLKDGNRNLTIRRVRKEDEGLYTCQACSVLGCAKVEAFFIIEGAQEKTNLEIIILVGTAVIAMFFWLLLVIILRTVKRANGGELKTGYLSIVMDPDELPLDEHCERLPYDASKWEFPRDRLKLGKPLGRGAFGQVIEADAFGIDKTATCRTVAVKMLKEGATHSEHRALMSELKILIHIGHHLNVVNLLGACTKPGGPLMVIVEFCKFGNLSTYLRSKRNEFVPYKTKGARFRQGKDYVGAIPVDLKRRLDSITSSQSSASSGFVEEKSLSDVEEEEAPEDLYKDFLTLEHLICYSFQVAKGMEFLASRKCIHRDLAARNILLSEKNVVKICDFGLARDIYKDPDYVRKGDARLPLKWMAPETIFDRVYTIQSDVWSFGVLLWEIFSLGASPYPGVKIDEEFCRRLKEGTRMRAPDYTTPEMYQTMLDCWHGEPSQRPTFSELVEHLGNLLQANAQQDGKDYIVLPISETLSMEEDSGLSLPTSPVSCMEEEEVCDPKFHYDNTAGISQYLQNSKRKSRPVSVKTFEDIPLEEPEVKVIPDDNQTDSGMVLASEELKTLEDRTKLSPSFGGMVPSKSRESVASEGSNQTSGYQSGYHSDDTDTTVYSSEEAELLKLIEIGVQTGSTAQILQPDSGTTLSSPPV

`CCOC(=O)c1cnn2c(-c3cccc(NC(=O)c4ccc(OC)c(C(F)(F)F)c4)c3)ccnc12`: the pIC50 in experiment [1] is 5.99.

On to `CCOC(=O)c1cnn2c(-c3cccc(NC(=O)c4cccc(OC(F)(F)F)c4)c3)ccnc12`, for which the pIC50 in [1] was 5.80.

Turning to `CCOC(=O)c1cnn2c(-c3cccc(NC(=O)Nc4ccc(C(F)(F)F)cc4)c3)ccnc12`, in experiment [1], the pIC50 is 5.44.

For the compound `O=C(Nc1cccc(-c2ccnc3c(C(=O)NCCN4CCOCC4)cnn23)c1)Nc1ccc(Cl)c(C(F)(F)F)c1`, the pIC50 in experiment [1] was 6.80.

Take `CCOC(=O)c1cnn2c(-c3cccc(NC(=O)c4cccc(C(F)(F)F)c4)c3)ccnc12`: the pIC50 in experiment [1] was 5.81; in the experiment with BXPC-3 it was 5.49; with HT-29, 5.15; in the experiment on A-375, 5.42; in the experiment on SW-620, 5.08; with LoVo, 5.41. The pIC50 in experiment [2] was 5.21; in the experiment on Caco-2 it was 5.18; in [3] it was less than 5.00; in experiment [4], less than 5.00; in [5] it was less than 5.00; in [6], less than 5.00. Also, the pIC50 in [7], in experiment [8], in experiment [9], in [10], in experiment [11] and in experiment [12] was less than 5.00 throughout. The pIC50 in experiment [13] is less than 5.00.

Consider `CCOC(=O)c1cnn2c(-c3cccc(NC(=O)Nc4cccc(Cl)c4)c3)ccnc12`, for which the pIC50 in experiment [1] was less than 5.00.

Consider `CCN(CC)CCNC(=O)c1cnn2c(-c3cccc(NC(=O)Nc4ccc(Cl)c(C(F)(F)F)c4)c3)ccnc12`, for which the pIC50 in [1] was 6.77.

Turning to `CCOC(=O)c1cnn2c(-c3cccc(NC(=O)c4ccccc4)c3)ccnc12`, in experiment [1], the pIC50 was less than 5.00.

In the case of `CCOC(=O)c1cnn2c(-c3cccc(NC(=O)c4cc(C(F)(F)F)ccc4C)c3)ccnc12`, in experiment [1], the pIC50 is less than 5.00.

As to `CCOC(=O)c1cnn2c(-c3cccc(NC(=O)c4ccc(Cl)c(C(F)(F)F)c4)c3)ccnc12`, in [1], the pIC50 is 5.37.

With `CCOC(=O)c1cnn2c(-c3cccc(NC(=O)c4cccc(C#N)c4)c3)ccnc12`, in experiment [1], the pIC50 is less than 5.00.

Take `CCOC(=O)c1cnn2c(-c3cccc(NC(=O)Nc4cc(C(F)(F)F)ccc4Cl)c3)ccnc12`: the pIC50 in experiment [1] was less than 5.00.

On to `CCOC(=O)c1cnn2c(-c3cccc(NC(=O)Nc4cccc(C(F)(F)F)c4)c3)ccnc12`, for which, in experiment [1], the pIC50 is 6.27.

With `CCOC(=O)c1cnn2c(-c3cccc(NC(=O)Nc4ccc(Cl)c(C(F)(F)F)c4)c3)ccnc12`, in [1], the pIC50 was 6.44.

Regarding `O=C(Nc1cccc(-c2ccnc3c(C(=O)NCCN4CCOCC4)cnn23)c1)c1cccc(C(F)(F)F)c1`, in experiment [1], the pIC50 was 5.20.

`COCCCNC(=O)c1cnn2c(-c3cccc(NC(=O)Nc4ccc(Cl)c(C(F)(F)F)c4)c3)ccnc12`: the pIC50 in [1] is 6.57.

Regarding `O=C(Nc1cccc(-c2ccnc3c(C(=O)OCC(F)(F)F)cnn23)c1)c1cccc(C(F)(F)F)c1`, the pIC50 in experiment [1] was 5.84.

With `CCOC(=O)c1cnn2c(-c3cccc(NC(=O)Nc4ccc(C)c(C(F)(F)F)c4)c3)ccnc12`, the pIC50 in experiment [1] is 6.44.

Consider `CCOC(=O)c1cnn2c(-c3cccc(NC(=O)Nc4ccc(F)c(C(F)(F)F)c4)c3)ccnc12`, for which the pIC50 in [1] was 6.62.
